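How tested: cells in 96-well plates exposed to compound for 48 hours at five concentrations. Here, GI50 denotes the concentration required for 50% inhibition of growth.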 Activity calls are given as the source filed them. Rule as the data show it: active = GI50 up to about 1.1 µM and inactive = higher.
Experiments:
Test in all cases: DTP human tumour cell line panel, 48 h
LOX IMVI = system: LOX IMVI
BT-549 = system: BT-549
HOP-62 = system: HOP-62
MDA-MB-231 = system: MDA-MB-231
SK-MEL-5 = system: SK-MEL-5
SR = system: SR
786-0 = system: 786-0
RPMI-8226 = system: RPMI-8226
NCI-H23 = system: NCI-H23
K562 = system: K562
UACC-257 = system: UACC-257
OVCAR-3 = system: OVCAR-3
TK-10 = system: TK-10
Hs-578T = system: Hs-578T
HCT-15 = system: HCT-15
DU-145 = system: DU-145
ACHN = system: ACHN
SK-OV-3 = system: SK-OV-3
OVCAR-4 = system: OVCAR-4
SNB-19 = system: SNB-19

Row | Compound | GI50 (LOX IMVI) | GI50 (BT-549) | GI50 (HOP-62) | GI50 (MDA-MB-231) | GI50 (SK-MEL-5) | GI50 (SR) | GI50 (786-0) | GI50 (RPMI-8226) | GI50 (NCI-H23) | GI50 (K562) | GI50 (UACC-257) | GI50 (OVCAR-3) | GI50 (TK-10) | GI50 (Hs-578T) | GI50 (HCT-15) [µM] | GI50 (DU-145) | GI50 (ACHN) | GI50 (SK-OV-3) | GI50 (OVCAR-4) | GI50 (SNB-19)
1 | CC(=O)OC1(C)C=CC(=O)C=C1 | 32.6 µM (inactive) | 57.3 µM (inactive) | 27.1 µM (inactive) | 24.2 µM (inactive) | 40.2 µM (inactive) | 32.7 µM (inactive) | 23.4 µM (inactive) | 37.3 µM (inactive) | 27.5 µM (inactive) | 50.8 µM (inactive) | 17.1 µM (inactive) | 51.8 µM (inactive) | 22.5 µM (inactive) | 61.7 µM (inactive) | 18 | 36.6 µM (inactive) | 17.5 µM (inactive) | > 100 µM (inactive) | 53.5 µM (inactive) | 48.2 µM (inactive)
2 | CN(C)CCOc1ccc2c(c1)C/C(=C/c1ncc([N+](=O)[O-])n1C)C2=O | 2.65 µM (inactive) | 1.04 µM (active) | 2.1 µM (inactive) | 1.91 µM (inactive) | 1.64 µM (inactive) | 0.242 µM (active) | 1.82 µM (inactive) | 1.37 µM (inactive) | 1 µM (active) | 1.49 µM (inactive) | 3.79 µM (inactive) | 2.11 µM (inactive) | 3.52 µM (inactive) | 12.9 µM (inactive) | 0.377 | 3.13 µM (inactive) | 1.36 µM (inactive) | 4.8 µM (inactive) | 1.53 µM (inactive) | 3.39 µM (inactive)
3 | O=C1/C(=C/c2cccnc2)C(n2cccc2)c2c(Br)sc(Br)c21 (stereo not given) | 1.93 µM (inactive) | 9.57 µM (inactive) | 2.73 µM (inactive) | 1.8 µM (inactive) | 7.18 µM (inactive) | 1.81 µM (inactive) | 2.55 µM (inactive) | 1.95 µM (inactive) | 2.52 µM (inactive) | 2.17 µM (inactive) | 1.72 µM (inactive) | 1.92 µM (inactive) | 1.69 µM (inactive) | 2.94 µM (inactive) | 2.02 | 1.94 µM (inactive) | 3.28 µM (inactive) | 15.8 µM (inactive) | 2.07 µM (inactive) | 4.7 µM (inactive)
4 | Cc1cc2oc(C)c(S(=O)(=O)NC(=O)Nc3ccc(Cl)cc3)c(=O)c2c(=O)o1 | > 100 µM (inactive) | > 100 µM (inactive) | > 100 µM (inactive) | > 100 µM (inactive) | > 100 µM (inactive) | > 100 µM (inactive) | > 100 µM (inactive) | > 100 µM (inactive) | > 100 µM (inactive) | > 100 µM (inactive) | > 100 µM (inactive) | > 100 µM (inactive) | > 100 µM (inactive) | > 100 µM (inactive) | 23 | > 100 µM (inactive) | 59.4 µM (inactive) | > 100 µM (inactive) | > 100 µM (inactive) | > 100 µM (inactive)
5 | COc1c2c(c3c(c1OC)c(=O)c1ccccc1n3C)OCO2 | > 100 µM (inactive) | > 100 µM (inactive) | > 100 µM (inactive) | > 100 µM (inactive) | > 100 µM (inactive) | > 100 µM (inactive) | > 100 µM (inactive) | > 100 µM (inactive) | > 100 µM (inactive) | 81.5 µM (inactive) | > 100 µM (inactive) | > 100 µM (inactive) | > 100 µM (inactive) | > 100 µM (inactive) | > 100 | > 100 µM (inactive) | > 100 µM (inactive) | > 100 µM (inactive) | 76.2 µM (inactive) | > 100 µM (inactive)
6 | O=C1C(Cl)=C(OCCCCl)C(=O)c2c(O)ccc(O)c21 | 1.76 µM (inactive) | 1.92 µM (inactive) | 8.99 µM (inactive) | 2.31 µM (inactive) | 1.73 µM (inactive) | 0.0836 µM (active) | 2.04 µM (inactive) | 1.37 µM (inactive) | 2.19 µM (inactive) | 0.401 µM (active) | 2.32 µM (inactive) | 2.42 µM (inactive) | 3.12 µM (inactive) | 4.91 µM (inactive) | 1.84 | 9.73 µM (inactive) | 5.07 µM (inactive) | 21.5 µM (inactive) | 2.74 µM (inactive) | 18.3 µM (inactive)
7 | C#CCN(Cc1ccc2nc(OC)c(OC)nc2c1)c1cc(OC)c(OC)c(OC)c1 | 11.7 µM (inactive) | 15.4 µM (inactive) | 22.9 µM (inactive) | 12.1 µM (inactive) | 7.82 µM (inactive) | 26.5 µM (inactive) | 24 µM (inactive) | 5.6 µM (inactive) | 8.36 µM (inactive) | 3.98 µM (inactive) | 12.3 µM (inactive) | 37.8 µM (inactive) | 35.5 µM (inactive) | 21.2 µM (inactive) | 22.9 | 27.6 µM (inactive) | 21 µM (inactive) | 24.5 µM (inactive) | 13.4 µM (inactive) | 26.6 µM (inactive)
8 | CC(=O)c1c(C(F)(F)F)[n+]([O-])c2cc(Cl)c(Cl)cc2[n+]1[O-] | 0.157 µM (active) | 0.211 µM (active) | 0.27 µM (active) | 1.3 µM (inactive) | 0.796 µM (active) | 0.0196 µM (active) | 0.168 µM (active) | 0.129 µM (active) | 0.938 µM (active) | 0.977 µM (active) | 0.762 µM (active) | 1.36 µM (inactive) | 0.212 µM (active) | 0.483 µM (active) | 0.196 | 1.26 µM (inactive) | 0.548 µM (active) | 1.46 µM (inactive) | 1.4 µM (inactive) | 0.83 µM (active)
9 | COc1ccc(N2C(=O)/C(=C\c3cccc(Oc4ccccc4)c3)SC2c2ccccc2)cc1 (stereo not given) | 21.9 µM (inactive) | 25.3 µM (inactive) | 64.9 µM (inactive) | > 100 µM (inactive) | 27.9 µM (inactive) | 16.7 µM (inactive) | > 100 µM (inactive) | 21.2 µM (inactive) | 41.7 µM (inactive) | 26.4 µM (inactive) | 38.7 µM (inactive) | 33.9 µM (inactive) | > 100 µM (inactive) | 10.3 µM (inactive) | > 100 | 73.8 µM (inactive) | > 100 µM (inactive) | 80.9 µM (inactive) | 40.2 µM (inactive) | 24.2 µM (inactive)
10 | Oc1c(Cl)c(Cl)c(Cl)c(Cl)c1Cl [PENTACHLOROPHENOL] | 17.9 µM (inactive) | 25.6 µM (inactive) | 25.4 µM (inactive) | 13.3 µM (inactive) | 18.3 µM (inactive) | 26.1 µM (inactive) | 21 µM (inactive) | 22.1 µM (inactive) | 21.8 µM (inactive) | 26.4 µM (inactive) | > 100 µM (inactive) | 18.7 µM (inactive) | > 100 µM (inactive) | 35.2 µM (inactive) | 19.5 | 21.4 µM (inactive) | 18.9 µM (inactive) | 45.6 µM (inactive) | 21.8 µM (inactive) | 30.3 µM (inactive)
11 | N=c1oc2ccc(Cl)cc2cc1C(=O)NCc1ccccc1 | > 100 µM (inactive) | 23.7 µM (inactive) | > 87.3 µM (inactive) | > 100 µM (inactive) | > 100 µM (inactive) | > 57.1 µM (inactive) | > 100 µM (inactive) | > 89.3 µM (inactive) | > 100 µM (inactive) | > 42 µM (inactive) | > 100 µM (inactive) | > 100 µM (inactive) | > 100 µM (inactive) | 30.5 µM (inactive) | > 77.8 | > 100 µM (inactive) | > 91.8 µM (inactive) | > 100 µM (inactive) | > 100 µM (inactive) | > 100 µM (inactive)
12 | CCOCC(=O)N[C@H]1CCc2cc(OC)c(OC)c(OC)c2-c2ccc(SC)c(=O)cc21 | < 0.01 µM (active) | < 0.01 µM (active) | < 0.01 µM (active) | < 0.01 µM (active) | < 0.01 µM (active) | < 0.01 µM (active) | < 0.01 µM (active) | < 0.01 µM (active) | < 0.01 µM (active) | 0.0146 µM (active) | < 0.0169 µM (active) | < 0.01 µM (active) | 0.406 µM (active) | < 0.01 µM (active) | < 0.01 | < 0.01 µM (active) | < 0.0117 µM (active) | 0.0272 µM (active) | 3.97 µM (inactive) | < 0.01 µM (active)
13 | CC(=O)OCC1OC(n2c(S)nc(-c3ccccc3)c(C#N)c2=O)C(OC(C)=O)C(OC(C)=O)C1OC(C)=O (stereo not given) | > 100 µM (inactive) | > 100 µM (inactive) | > 100 µM (inactive) | > 100 µM (inactive) | > 100 µM (inactive) | > 100 µM (inactive) | > 100 µM (inactive) | > 100 µM (inactive) | > 100 µM (inactive) | > 100 µM (inactive) | > 100 µM (inactive) | > 100 µM (inactive) | > 100 µM (inactive) | > 100 µM (inactive) | > 100 | > 100 µM (inactive) | > 100 µM (inactive) | > 100 µM (inactive) | > 100 µM (inactive) | > 100 µM (inactive)
14 | CC1=NN(C(=O)c2ccccc2O)C(=O)/C1=C/c1c(O)ccc2ccccc12 | 0.625 µM (active) | 4.7 µM (inactive) | 0.944 µM (active) | 3.97 µM (inactive) | 1.19 µM (inactive) | 0.364 µM (active) | 0.316 µM (active) | 1.46 µM (inactive) | 1.43 µM (inactive) | 1.73 µM (inactive) | 2.47 µM (inactive) | 0.201 µM (active) | 8.87 µM (inactive) | 21.4 µM (inactive) | 0.48 | 0.607 µM (active) | 0.955 µM (active) | 0.741 µM (active) | 0.468 µM (active) | 3.26 µM (inactive)

Reference: ChEMBL document CHEMBL1201862, “PubChem BioAssay data set” (2004)
